Holding throughout (assay): In vitro minimum inhibitory concentration (MIC) test
Common to all, as to assay type: cell-based
Holding throughout (conditions): RPMI 1640, 35° C., 24-48 h, 485 nm, lowest concentration inhibiting growth more than 80%

The test system of experiment [1] is Aspergillus terreus. As for the experimental part:
(§1) Example 20: In Vtro Minimum Inhibitory Concentration (MIC) Test Strains used in the experiment are inoculated on Sabouraud glucose agar culture medium and cultured at 35° C. for 5 d; then 1 mL of 0.2% Tween diluted with 0.85% sterile normal saline is added into Sabouraud dextrose agar culture medium, and plate is shaken, before solution collected from plate surface is transferred into sterile tube, and fungus containing supernatant is transferred into sterile tube in full suspension so as to prepare strain diluent with concentration from 0.4*10^6 to 5*10^6 CFU/mL. Strain diluent prepared herein is diluted into RPMI 1640 culture medium in a ratio of 1:100. Such biological suspension is added into hole on the plate which contains drug diluent; all plates are incubated at 35° C. for 24-48 h, and light in wavelength of 485 nm is monitored for each hole to evaluate strain growth. MIC of compound is defined as follows: Compared with negative control free of drug, the lowest drug concentration able to inhibit growth for more than 80% of strains. A indicates MIC value>0.1 μg/mL, B indicates 0.1 μg/mL≥MIC value>0.01 μg/mL, and C indicates MIC value<0.01 μg/mL.

In experiment [2] the test system is Aspergillus niger. How it is done: as §1
Experiment [3] deals with Aspergillus fumigatus. As for the experimental part:
as §1

The test system of experiment [4] is Aspergillus flavus. As for the experimental part:
as §1

A word on the MIC: it is the lowest concentration found to suppress growth.

Converted amounts (≈) assume the structure as drawn.

Consider `Cc1cc(-c2ccccc2)c(C(=O)C(=O)Nc2ccc3c(c2)N(C)CC2CN(c4ncc(F)cn4)CCN32)n1C` (stereo not drawn) [Example 12], for which the MIC was less than 0.01 µg/mL in experiment [1], 0.01 to 0.1 µg/mL (≈ 0.0185 to 0.185 µM) in experiment [2], less than 0.01 µg/mL in experiment [3] and 0.01 to 0.1 µg/mL (≈ 0.0185 to 0.185 µM) in experiment [4].

On to `Cc1cc(-c2ccccc2)c(C(=O)C(=O)Nc2cc3c(cc2F)N2CCN(c4ncc(F)cn4)CC2CO3)n1C` (stereo not drawn) [Example 9], for which the MIC in experiment [1], in experiment [2], in experiment [3] and in experiment [4] was less than 0.01 µg/mL throughout.

As for `CCC(C)n1ncn(-c2ccc(N3CCN(c4ccc(OCC5COC(Cn6cncn6)(c6ccc(Cl)cc6Cl)O5)cc4)CC3)cc2)c1=O` (stereo not drawn) [Itraconazole, reference compound], the MIC in experiment [1], in experiment [2], in experiment [3] and in experiment [4] was more than 0.1 µg/mL in each case.

`Cc1cc2c(cc1NC(=O)C(=O)c1c(-c3ccccc3)cc(C)n1C)OCC1CN(c3ncc(F)cn3)CCN21` (stereo not drawn) [Example 10]: the MIC in experiment [1], in experiment [2], in experiment [3] and in experiment [4] was 0.01 to 0.1 µg/mL (≈ 0.0185 to 0.185 µM) in each case.

Consider `Cc1cc(-c2ccccc2)c(C(=O)C(=O)Nc2ccc3c(c2)N(C)C[C@H]2CN(c4ncc(F)cn4)CCN32)n1C` [Example 12-B], for which the MIC in experiment [1], in experiment [2], in experiment [3] and in experiment [4] was less than 0.01 µg/mL throughout.

For `Cc1cc(C)nc(N2CCN3c4ccc(NC(=O)C(=O)c5c(-c6ccccc6)cc(C)n5C)cc4N(C)C[C@@H]3C2)c1` [Example 13-A], the minimal inhibitory concentration (MIC) in experiment [1] was less than 0.01 µg/mL; in experiment [2], 0.01 to 0.1 µg/mL (≈ 0.0182 to 0.182 µM); in experiment [3] it was less than 0.01 µg/mL; in experiment [4], 0.01 to 0.1 µg/mL (≈ 0.0182 to 0.182 µM).

With `Cc1cc(-c2ccccc2)c(C(=O)C(=O)Nc2ccc3c(c2)OC[C@H]2CN(c4ncc(F)cn4)CCN32)n1C` [Example 1-B], the MIC in experiment [1], in experiment [2], in experiment [3] and in experiment [4] was less than 0.01 µg/mL throughout.

In the case of `Cc1cc(C)nc(N2CCN3c4ccc(NC(=O)C(=O)c5c(-c6ccccc6)cc(C)n5C)cc4N(C)CC3C2)c1` (stereo not drawn) [Example 13], the MIC was less than 0.01 µg/mL in experiment [1], 0.01 to 0.1 µg/mL (≈ 0.0182 to 0.182 µM) in experiment [2], less than 0.01 µg/mL in experiment [3] and 0.01 to 0.1 µg/mL (≈ 0.0182 to 0.182 µM) in experiment [4].

For `Cc1cc(-c2ccccc2)c(C(=O)C(=O)Nc2ccc3c(c2)OCC2CN(c4ncc(F)cn4)CCN32)n1C` (stereo not drawn) [Example 1], the MIC in experiment [1], in experiment [2], in experiment [3] and in experiment [4] was less than 0.01 µg/mL each time.

For the compound `CCn1c(C)cc(-c2ccccc2)c1C(=O)C(=O)Nc1ccc2c(c1)OCC1CN(c3ncc(F)cn3)CCN21` (stereo not drawn) [Example 14], the MIC in experiment [1] was less than 0.01 µg/mL; in experiment [2] it was 0.01 to 0.1 µg/mL (≈ 0.0185 to 0.185 µM); in experiment [3], less than 0.01 µg/mL; in experiment [4], less than 0.01 µg/mL.

On to `COCCn1c(C)cc(-c2ccccc2)c1C(=O)C(=O)Nc1ccc2c(c1)OCC1CN(c3ncc(F)cn3)CCN21` (stereo not drawn) [Example 16], for which the MIC in experiment [1] is less than 0.01 µg/mL; in experiment [2], less than 0.01 µg/mL; in experiment [3], 0.01 to 0.1 µg/mL (≈ 0.0175 to 0.175 µM); in experiment [4], less than 0.01 µg/mL.

For the compound `Cc1cc(C)nc(N2CCN3c4ccc(NC(=O)C(=O)c5c(-c6ccccc6)cc(C)n5C)cc4OC[C@H]3C2)c1` [Example 2-B], the MIC in experiment [1], in experiment [2], in experiment [3] and in experiment [4] was less than 0.01 µg/mL in each case.

Turning to `Cc1cc(C)nc(N2CCN3c4ccc(NC(=O)C(=O)c5c(-c6ccccc6)cc(C)n5C)cc4OC[C@@H]3C2)c1` [Example 2-A], the MIC in experiment [1], in experiment [2], in experiment [3] and in experiment [4] was less than 0.01 µg/mL throughout.

In the case of `Cc1cc(C)nc(N2CCN3c4ccc(NC(=O)C(=O)c5c(-c6ccccc6)cc(C)n5C)cc4N(C)C[C@H]3C2)c1` [Example 13-B], the MIC was less than 0.01 µg/mL in experiment [1], 0.01 to 0.1 µg/mL (≈ 0.0182 to 0.182 µM) in experiment [2], less than 0.01 µg/mL in experiment [3] and 0.01 to 0.1 µg/mL (≈ 0.0182 to 0.182 µM) in experiment [4].

`Cc1cc(-c2ccccc2)c(C(=O)C(=O)Nc2ccc3c(c2)OCC2CN(CC(C)(C)C)CCN32)n1C` (stereo not drawn) [Example 8]: the MIC in experiment [1] was less than 0.01 µg/mL; in experiment [2] it was 0.01 to 0.1 µg/mL (≈ 0.02 to 0.2 µM); in experiment [3] it was less than 0.01 µg/mL; in experiment [4] it was 0.01 to 0.1 µg/mL (≈ 0.02 to 0.2 µM).

In the case of `Cc1cc(-c2ccccc2)c(C(=O)C(=O)Nc2ccc3c(c2)OC[C@@H]2CN(c4ncc(F)cn4)CCN32)n1C` [Example 1-A], the MIC in experiment [1], in experiment [2], in experiment [3] and in experiment [4] was less than 0.01 µg/mL in each case.

For `Cc1cc(-c2ccccc2)c(C(=O)C(=O)Nc2ccc3c(c2)N(C)C[C@@H]2CN(c4ncc(F)cn4)CCN32)n1C` [Example 12-A], the MIC in experiment [1], in experiment [2], in experiment [3] and in experiment [4] was less than 0.01 µg/mL each time.

As for `Cc1cc(C)nc(N2CCN3c4ccc(NC(=O)C(=O)c5c(-c6ccccc6)cc(C)n5C)cc4OCC3C2)c1` (stereo not drawn) [Example 2], the MIC in experiment [1], in experiment [2], in experiment [3] and in experiment [4] was less than 0.01 µg/mL each time.

The record behind these values is patent US12497397B2, “Pyrrole compounds useful as antifungals” (WIGEN BIOMEDICINE TECHNOLOGY (SHANGHAI) CO., LTD., priority 2019, dated 2025).
